Data taken from patent US11932634B2 (Gilead Sciences, Inc., priority 2021, dated 2024).

Assays:
[1] = target: T1, human DGKα (Homo sapiens, UniProt P23743); assay: DGKα Biochemical Activity Assay (ADP-Glo);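 also: recombinant enzyme converting diacylglycerol in lipid micelles with ATP, ADP formed detected by luminescence, IC50 from a four-parameter nonlinear fit, geometric mean across experiments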
T1 construct: purchased Carna Biosciences'; inferred from the same paragraph's 'obtained from Carna Biosciences')

[2] = system: Jurkat NFκB-luciferase cells; assay: Jurkat NFκB-Luciferase Assay; type: cell-based; settings: Homo sapiens; Jurkat NFκB-luciferase cells activated with anti-CD3 antibody (OKT3), 2.5 hrs at 37° C., One-Glo Ex; geometric mean; read-out: DGK NFKb Luciferase EC50;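 also: bioluminescence read-out normalized to DMSO basal activation and to maximum enhancement at 1 µM compound, rising signal indicating stronger T-cell activation through DGKα inhibition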
Experimental: The activity of compounds was tested in a cell based NFκB reporter assay. Jurkat cells that are stably expressing a luciferase reporter construct under the transcriptional control of a NFκB reporter element were activated with an anti-CD3 antibody and luciferase levels were measured with a bioluminescence readout.
The day after, the excess antibody was washed out five times with 100 ul/well of assay medium (RPMI supplemented with 10% fetal bovine serum) using a Biotek EL406 instrument and leaving 20 µl of residual volume in each well. Jurkat NFκB-luciferase cells (Promega #) were harvested and diluted to 1 million cells/ml in assay medium. Sixty nanoliters of test compound dissolved in DMSO at various concentrations were dispensed into 384-well v-bottom polypropylene plates (Greiner) using a Labcyte Echo instrument. Thirty microliters of medium containing the Jurkat NFκB-luciferase cells were then dispensed using a Biotek MicroFlo instrument in each well of the compound-containing plate. The medium/cell/compound mixture was mixed with a Bravo instrument and 20 ul/well of the mixture was transferred to the anti-CD3-coated plate. The assay mixture was then incubated for 2.5 hrs at 37° C. followed by equilibration at 25° C. for 30 min. Forty microliters of One-Glo Ex (Promega) was then added to the assay mixture and luciferase activity was read on a Envision plate reader 7 minutes later.
Bioluminescence data were normalized based on maximum enhancement (1 micromolar of compound) and on basal activation (DMSO) controls. Least squares curve fittings were performed using a four-parameter variable slope nonlinear regression model. […] EC50 values from multiple experiments were averaged by geometric mean and the standard deviation was calculated.

T1 sequence (P23743 whole entry): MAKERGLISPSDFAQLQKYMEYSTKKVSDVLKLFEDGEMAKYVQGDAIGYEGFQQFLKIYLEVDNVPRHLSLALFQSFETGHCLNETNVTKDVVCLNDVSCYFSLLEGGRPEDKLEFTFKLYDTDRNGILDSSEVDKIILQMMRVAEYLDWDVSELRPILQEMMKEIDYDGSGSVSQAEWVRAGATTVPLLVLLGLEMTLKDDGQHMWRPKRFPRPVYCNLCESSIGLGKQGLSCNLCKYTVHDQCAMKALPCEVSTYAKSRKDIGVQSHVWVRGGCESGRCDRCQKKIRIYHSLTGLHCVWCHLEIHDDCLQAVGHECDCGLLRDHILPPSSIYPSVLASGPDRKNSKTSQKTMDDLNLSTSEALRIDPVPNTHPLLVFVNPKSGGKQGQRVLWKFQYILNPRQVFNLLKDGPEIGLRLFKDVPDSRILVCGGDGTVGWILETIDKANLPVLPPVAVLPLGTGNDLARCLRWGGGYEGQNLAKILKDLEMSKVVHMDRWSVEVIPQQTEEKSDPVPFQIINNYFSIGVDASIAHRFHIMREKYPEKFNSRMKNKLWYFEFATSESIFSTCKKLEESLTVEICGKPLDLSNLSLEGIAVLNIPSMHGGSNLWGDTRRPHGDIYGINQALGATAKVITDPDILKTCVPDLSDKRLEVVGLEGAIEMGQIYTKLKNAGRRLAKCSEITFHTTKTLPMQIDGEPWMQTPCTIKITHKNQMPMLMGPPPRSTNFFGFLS

Row | SMILES | IC50 [1] | EC50 [2]
1 | CC(C)(C#Cc1cccc(N(CC(F)F)c2nc(=O)[nH]c3cccc(F)c23)c1F)C(F)(F)F [Example 60, 4-[N-(2,2-difluoroethyl)-2-fluoro-3-(4,4,4-trifluoro-3,3-dimethyl-but-1-ynyl)anilino]-5-fluoro-1H-quinazolin-2-one] | 122 nM | 2.53 nM
2 | CC1(C#Cc2cccc(N(CC(F)F)c3nc(=O)[nH]c4cccc(F)c34)c2F)CC1 [Example 61, 4-[N-(2,2-difluoroethyl)-2-fluoro-3-[2-(1-methylcyclopropyl)ethynyl]anilino]-5-fluoro-1H-quinazolin-2-one] | 48.2 nM | 1.7 nM
3 | O=c1nc(N(CC(F)F)c2cccc(C#CC3(C(F)F)CC3)c2F)c2c(F)cccc2[nH]1 [Example 62, 4-[N-(2,2-difluoroethyl)-3-[2-[1-(difluoromethyl)cyclopropyl]ethynyl]-2-fluoro-anilino]-5-fluoro-1H-quinazolin-2-one] | 28.2 nM | 1.13 nM
4 | CC(C)(C#Cc1cccc(N(CC(F)F)c2nc(=O)[nH]c3cccc(F)c23)c1F)C(F)F [Example 63, 4-[3-(4,4-difluoro-3,3-dimethyl-but-1-ynyl)-N-(2,2-difluoroethyl)-2-fluoro-anilino]-5-fluoro-1H-quinazolin-2-one] | 282 nM | 1.51 nM
5 | [2H]C([2H])([2H])n1c(=O)nc(N(CC(F)F)c2cc(F)cc(C#CC(C)(C)O)c2)c2c(F)c(F)ccc21 [Example 64, 4-[N-(2,2-difluoroethyl)-3-fluoro-5-(3-hydroxy-3-methyl-but-1-ynyl)anilino]-5,6-difluoro-1-(trideuteriomethyl)quinazolin-2-one] | 10.7 nM | 8.99 nM
6 | CC(C)(O)C#Cc1cc(F)cc(N(CC(F)F)c2nc(=O)[nH]c3ccc(F)c(F)c23)c1 [Example 65, 4-[N-(2,2-difluoroethyl)-3-fluoro-5-(3-hydroxy-3-methyl-but-1-ynyl)anilino]-5,6-difluoro-1H-quinazolin-2-one] | 13.4 nM | 9.92 nM
7 | [2H]C([2H])([2H])n1c(=O)nc(N(CC(F)F)c2cc(F)cc(C#CC3(C)CCCO3)c2)c2c(F)c(F)ccc21 (stereo not shown) [Example 66, 4-[N-(2,2-difluoroethyl)-3-fluoro-5-[2-(2-methyltetrahydrofuran-2-yl)ethynyl]anilino]-5,6-difluoro-1-(trideuteriomethyl)quinazolin-2-one] | 3.27 nM | 2.85 nM
8 | [2H]C([2H])([2H])n1c(=O)nc(N(CC(F)F)c2cc(F)cc(-c3cnc(C4CC4)cn3)c2)c2c(F)c(F)ccc21 [Example 67, 4-[3-(5-cyclopropylpyrazin-2-yl)-N-(2,2-difluoroethyl)-5-fluoro-anilino]-5,6-difluoro-1-(trideuteriomethyl)quinazolin-2-one] | 7.57 nM | 0.527 nM
9 | [2H]C([2H])([2H])n1c(=O)nc(N(CC(F)F)c2cc(F)cc(C#CC(C)(C)C#N)c2)c2c(F)c(F)ccc21 [Example 68, 4-[3-[2,2-difluoroethyl-[5,6-difluoro-2-oxo-1-(trideuteriomethyl)quinazolin-4-yl]amino]-5-fluoro-phenyl]-2,2-dimethyl-but-3-ynenitrile] | 3.29 nM | 2.53 nM
10 | CC(C)(C#N)C#Cc1cc(F)cc(N(CC(F)F)c2nc(=O)[nH]c3ccc(F)c(F)c23)c1 [Example 69, 4-[3-[2,2-difluoroethyl-(5,6-difluoro-2-oxo-1H-quinazolin-4-yl)amino]-5-fluoro-phenyl]-2,2-dimethyl-but-3-ynenitrile] | 26.7 nM | 1.8 nM
11 | O=c1nc(N2CCCc3c(Br)cncc32)c2c(F)cccc2[nH]1 [Example 70, 4-(5-bromo-3,4-dihydro-1,7-naphthyridin-1(2H)-yl)-5-fluoroquinazolin-2(1H)-one] | 170 nM | 40.9 nM
12 | O=c1nc(N2CCCc3c(C#CC4(C(F)(F)F)CC4)cncc32)c2c(F)cccc2[nH]1 [Example 71, 5-fluoro-4-(5-((1-(trifluoromethyl)cyclopropyl)ethynyl)-3,4-dihydro-1,7-naphthyridin-1(2H)-yl)quinazolin-2(1H)-one] | 18.4 nM | 1.43 nM
13 | CC(C)(C#Cc1cncc2c1CCCN2c1nc(=O)[nH]c2cccc(F)c12)C(F)(F)F [Example 72, 5-fluoro-4-(5-(4,4,4-trifluoro-3,3-dimethylbut-1-yn-1-yl)-3,4-dihydro-1,7-naphthyridin-1(2H)-yl)quinazolin-2(1H)-one] | 126 nM | 5.71 nM
14 | CC(F)(F)C1(C#Cc2cncc3c2CCCN3c2nc(=O)[nH]c3cccc(F)c23)CC1 [Example 73, 4-(5-((1-(1,1-difluoroethyl)cyclopropyl)ethynyl)-3,4-dihydro-1,7-naphthyridin-1(2H)-yl)-5-fluoroquinazolin-2(1H)-one] | 18.1 nM | 1.89 nM
15 | O=c1nc(N2CCCc3c(C#CC4(C(F)(F)F)CC4)cncc32)c2c(F)c(F)ccc2[nH]1 [Example 74, 5,6-difluoro-4-(5-((1-(trifluoromethyl)cyclopropyl)ethynyl)-3,4-dihydro-1,7-naphthyridin-1(2H)-yl)quinazolin-2(1H)-one] | 2.83 nM | 0.222 nM
16 | CC(F)(F)C1(C#Cc2cncc3c2CCCN3c2nc(=O)[nH]c3ccc(F)c(F)c23)CC1 [Example 76, 4-(5-((1-(1,1-difluoroethyl)cyclopropyl)ethynyl)-3,4-dihydro-1,7-naphthyridin-1(2H)-yl)-5,6-difluoroquinazolin-2(1H)-one] | 16.1 nM | 1.51 nM
17 | CC(C)(C#N)C#Cc1cc(N(CC(F)F)c2nc(=O)[nH]c3ccc(F)c(F)c23)ccn1 [Example 77, 4-[4-[2,2-difluoroethyl-(5,6-difluoro-2-oxo-1H-quinazolin-4-yl)amino]-2-pyridyl]-2,2-dimethyl-but-3-ynenitrile] | 14.1 nM | 24.2 nM
18 | [2H]C([2H])([2H])n1c(=O)nc(N(CC(F)F)c2ccnc(C#CC(C)(C)C#N)c2)c2c(F)c(F)ccc21 [Example 79, 4-[4-[2,2-difluoroethyl-[5,6-difluoro-2-oxo-1-(trideuteriomethyl)quinazolin-4-yl]amino]-2-pyridyl]-2,2-dimethyl-but-3-ynenitrile] | 2.95 nM | 11.3 nM
19 | [2H]C([2H])([2H])n1c(=O)nc(N(CC(F)F)c2ccnc(C#CC3(C(F)(F)F)CC3)c2)c2c(F)c(F)ccc21 [Example 80, 4-[2,2-difluoroethyl-[2-[2-[1-(trifluoromethyl)cyclopropyl]ethynyl]-4-pyridyl]amino]-5,6-difluoro-1-(trideuteriomethyl)quinazolin-2-one] | 3.75 nM | 1.94 nM
20 | CC(C)(O)C#Cc1cccc2c1CCCCN2c1nc(=O)[nH]c2cccc(F)c12 [Example 81, 5-fluoro-4-[6-(3-hydroxy-3-methyl-but-1-ynyl)-2,3,4,5-tetrahydro-1-benzazepin-1-yl]-1H-quinazolin-2-one] | 3.6 nM | 2.5 nM
21 | CC(C)(O)C#Cc1cccc2c1OCCCN2c1nc(=O)[nH]c2cccc(F)c12 [Example 82, 5-fluoro-4-[9-(3-hydroxy-3-methyl-but-1-ynyl)-3,4-dihydro-2H-1,5-benzoxazepin-5-yl]-1H-quinazolin-2-one] | 4.42 nM | 18 nM
22 | [2H]C([2H])([2H])n1c(=O)nc(N2CCCOc3c(C#CC(C)(C)O)cccc32)c2c(F)cccc21 [Example 83, 5-fluoro-4-[9-(3-hydroxy-3-methyl-but-1-ynyl)-3,4-dihydro-2H-1,5-benzoxazepin-5-yl]-1-(trideuteriomethyl)quinazolin-2-one] | 13.1 nM | 16.2 nM
23 | [2H]C([2H])([2H])n1c(=O)nc(N2CCCOc3c(C#CC4(C)CC4)cccc32)c2c(F)cccc21 [Example 84, 5-fluoro-4-[9-[2-(1-methylcyclopropyl)ethynyl]-3,4-dihydro-2H-1,5-benzoxazepin-5-yl]-1-(trideuteriomethyl)quinazolin-2-one] | 3.67 nM | 0.461 nM
24 | [2H]C([2H])([2H])n1c(=O)nc(N2CCCCc3c(C#CC(C)(C)O)cccc32)c2c(F)cccc21 [Example 85, 5-fluoro-4-[6-(3-hydroxy-3-methyl-but-1-ynyl)-2,3,4,5-tetrahydro-1-benzazepin-1-yl]-1-(trideuteriomethyl)quinazolin-2-one] | 3.31 nM | 4.08 nM
25 | [2H]C([2H])([2H])n1c(=O)nc(N2CCCCc3c(C#CC4(C)CC4)cccc32)c2c(F)cccc21 [Example 86, 5-fluoro-4-[6-[2-(1-methylcyclopropyl)ethynyl]-2,3,4,5-tetrahydro-1-benzazepin-1-yl]-1-(trideuteriomethyl)quinazolin-2-one] | 1.13 nM | 0.133 nM
26 | CC(C)(O)C#Cc1cccc2c1COCCN2c1nc(=O)[nH]c2cccc(F)c12 [Example 87, 5-fluoro-4-[6-(3-hydroxy-3-methyl-but-1-ynyl)-3,5-dihydro-2H-4,1-benzoxazepin-1-yl]-1H-quinazolin-2-one] | 9.58 nM | 30.9 nM
27 | CC(C)(O)C#Cc1cccc2c1COCCN2c1nc(=O)[nH]c2ccc(F)c(F)c12 [Example 88, 5,6-difluoro-4-[6-(3-hydroxy-3-methyl-but-1-ynyl)-3,5-dihydro-2H-4,1-benzoxazepin-1-yl]-1H-quinazolin-2-one] | 4.7 nM | 21.9 nM
28 | O=c1nc(N2CCOCc3c(C#CC4(C(F)(F)F)CC4)cccc32)c2c(F)c(F)ccc2[nH]1 [Example 89, 5,6-difluoro-4-[6-[2-[1-(trifluoromethyl)cyclopropyl]ethynyl]-3,5-dihydro-2H-4,1-benzoxazepin-1-yl]-1H-quinazolin-2-one] | 2.26 nM | 0.258 nM
29 | CC(C)(C#N)C#Cc1cccc2c1COCCN2c1nc(=O)[nH]c2ccc(F)c(F)c12 [Example 91, 4-[1-(5,6-difluoro-2-oxo-1H-quinazolin-4-yl)-3,5-dihydro-2H-4,1-benzoxazepin-6-yl]-2,2-dimethyl-but-3-ynenitrile] | 5.24 nM | 2.67 nM
